# Reference: patent US9169509B2, “Topoisomerase 2b as a predictor of susceptibility to anthracycline-induced cardiotoxicity” (Board of Regents, The University of Texas System, priority 2013, dated 2015)
# What was measured:
# heart sections = test: Detection of reactive oxygen species (DHE staining) in heart sections; type: in vivo, mouse
# From the text: The hearts were isolated on ice, embedded in OCT, snap frozen in liquid nitrogen, sectioned into 5 μm-thick slices, and ROS generation was detected immediately by using dihydroethidium (DHE). Doxorubicin treatment generated ROS in the hearts of Top2b^+/+ mice, but this was reduced by 70% in Top2b^Δ/Δ mice (FIGS. 5b,c).
# The hearts were perfused with ice-cold PBS and quickly removed. The hearts were embedded in OCT and snap-frozen in liquid nitrogen. Series of 5 μm-thick slices were sectioned from the heart immediately. Tissue sections were then stained with Dihydroethidium (DHE, Invitrogen) for 15 m, followed by staining with DAPI (1 μg/ml, Sigma). Tissue slides were sealed and examined with an Olympus epifluorescence microscope (Model BX51). The numbers of DHE-positive nuclei and the total nuclei were counted in 5 microscopic fields (400×) per section. Five heart sections from each mouse were counted to determine the percentage of the DHE-positive nuclei.
# [1] = test system: PGC-1α and PGC-1β promoters; test: Chromatin immunoprecipitation with Top2b antibody at PGC-1 promoters; type: cell-based, mouse; conditions: HL-1 cells (DOX 2 h) and cardiomyocytes isolated 16 h after 25 mg/kg ip
# Experimental: FIGS. 7a-e: a, b. PGC-1 expression in HL-1 cells. […] Expression was measured with RT-qPCR. c, d. CHiP analysis in HL-1 cells. HL-1 cardiomyocytes were treated with (right bars) or without (left bars) DOX ([…]) for 2 hrs and isolated for ChIP using the Top2β antibody. The eluted DNA and Input were PCR amplified to detect specific promoter regions represented in the schematic above the respective ChIP data. In the presence of DOX, the Top2b is readily bound to Region #1 and Region #3 of the PGC-1α promoter (c) and Region #1 and #2 of the PGC-1β promoter (d). e. CHiP study in cardiomyocytes. Cardiomyocytes were isolated from control (n=4) and Dox-treated (n=4) mice and subject to ChIP with the Top2b antibody. The data represent real-time PCR ratios for the fold-enrichment of Top2b at the respective promoters. Top2β binds the Region #1 of the PGC-1α and PGC-1β promoters efficiently following Dox treatment.
# HL-1 cells were treated with or without DOX (1 μM) for 2 h and subsequently evaluated using the ChIP protocol as previously published (24-26). For ChIP assay on isolated cardiomyocytes, mice were treated with doxorubicin (25 mg/kg, ip) or drug vehicle. […] For each individual treatment sample, the eluted ChIP product was normalized to the Input product to rule out differences in total DNA quantities between control and Dox-treatment samples. […]
# cardiomyocytes = test: Western blot of Ndufa3, Atp5a and Sdha in mitochondria isolated from cardiomyocytes; type: in vivo, mouse; conditions: cardiomyocytes of doxorubicin-treated Top2b+/+ mice, 72 h
# Experimental: Expression of Top2b was examined in the hearts of mice. After sacrifice, the heart was quickly removed and homogenized immediately in lysis buffer. After homogenization, the lysate was sonicated at 4° C. and an aliquot was removed for protein concentration measurement. The lysate was stored at −80° C. for western blot analysis. 20 μg of lysate proteins were electrophoresed and transferred to PVDF membranes. Blots were blocked with 5% non-fat dry milk, and incubated overnight at 4° C. with anti-Top2b antibody (Abcam). To detect mitochondrial proteins, the mitochondria were isolated from cardiomyocytes. The cardiomyocytes were isolated with a Langendorff perfusion system according to a published protocol3. Briefly, heart was removed and rinsed with ice-cold PBS twice before connecting to a Langendorff apparatus through the aorta. The heart was perfused first with perfusion buffer for 3 m at 37° C. (3 ml/min), then digestion buffer (enzyme-containing) buffer at 37° C. for 8-10 m. The heart was disintegrated manually and the tissue/cells were separated by using forceps. […] After incubation with HRP-conjugated secondary antibodies for 40 m at room temperature, the blots were detected with a luminol-based detection kit (ECL, GE Health Care).
smiles,measurement,setting,value
COc1cccc2c1C(=O)c1c(O)c3c(c(O)c1C2=O)C[C@@](O)(C(=O)CO)C[C@@H]3O[C@H]1C[C@H](N)[C@H](O)[C@H](C)O1 [doxorubicin],Reduction of doxorubicin-generated ROS in Top2bΔ/Δ mice versus Top2b+/+ mice,heart sections; 16 hrs after doxorubicin 25 mg/kg,70%
same,ROS generation (DHE),"heart sections; Top2b+/+ hearts, chronic doxorubicin 5 mg/kg once a week for 5 weeks",generation of ROS
same,ROS generation in the hearts (DHE-positive nuclei),"heart sections; Top2b+/+ mice, 16 hrs after doxorubicin 25 mg/kg",generated ROS
same,Top2b binding to the promoter of the PGC-1α and PGC-1β genes in the presence of doxorubicin (ChIP),[1],binds avidly
same,"Protein levels of Ndufa3, Atp5a and Sdha in mitochondria",cardiomyocytes,reduction in the protein levels
